Test results from paper PMC11012124, “Synthesis of Novel Triazine-Based Chalcones and 8,9-dihydro-7H-pyrimido[4,5-b][1,4]diazepines as Potential Leads in the Search of Anticancer, Antibacterial and Antifungal Agents” (International Journal of Molecular Sciences, 2024).

Experiments:
[1] = Hemolytic activity, spectrophotometric; format: cell-based, human; settings: human, human red blood cells (huRBC), 5% hematocrit, 200 μg/mL, 37 °C
CCRF-CEM = assay: cells; settings: Homo sapiens, 48 h; for CC50: read-out: LC50
K-562 = assay: cells; settings: Homo sapiens, K562, 48 h; for GI50: K-562, 48 h; for CC50: read-out: LC50
MOLT-4 = assay: cells; settings: Homo sapiens, MOLT-4, 48 h; for CC50: read-out: LC50
A549/ATCC = assay: cells; settings: Homo sapiens, A549, 48 h; for CC50: read-out: LC50
EKVX = assay: cells; settings: Homo sapiens, 48 h; for CC50: read-out: LC50
HOP-62 = assay: cells; settings: Homo sapiens, HOP-62, 48 h; for CC50: read-out: LC50
HOP-92 = assay: cells; settings: Homo sapiens, HOP-92, 48 h; for CC50: read-out: LC50
NCI-H23 = assay: cells; settings: Homo sapiens, NCI-H23, 48 h; for CC50: read-out: LC50
NCI-H460 = assay: cells; settings: Homo sapiens, NCI-H460, 48 h; for CC50: read-out: LC50
COLO 205 = assay: cells; settings: Homo sapiens, COLO 205, 48 h; for CC50: read-out: LC50
HCC-2998 = assay: cells; settings: Homo sapiens, HCC 2998, 48 h; for CC50: read-out: LC50
HCT-116 = assay: cells; settings: Homo sapiens, HCT-116, 48 h; for CC50: read-out: LC50
HCT-15 = assay: cells; settings: Homo sapiens, HCT-15, 48 h; for CC50: read-out: LC50
HT29 = assay: cells; settings: Homo sapiens, HT-29, 48 h; for CC50: read-out: LC50
KM12 = assay: cells; settings: Homo sapiens, KM12, 48 h; for CC50: read-out: LC50
SW-620 = assay: cells; settings: Homo sapiens, SW-620, 48 h; for CC50: read-out: LC50
SF-268 = assay: cells; settings: Homo sapiens, SF-268, 48 h; for CC50: read-out: LC50
SF-295 = assay: cells; settings: Homo sapiens, SF-295, 48 h; for CC50: read-out: LC50
U251 = assay: cells; settings: Homo sapiens, U-251, 48 h; for GI50: U251, 48 h; for CC50: read-out: LC50
LOX IMVI = assay: cells; settings: Homo sapiens, 48 h; for CC50: read-out: LC50, LOX IMVI, 48 h
MALME-3M = assay: cells; settings: Homo sapiens, 48 h; for CC50: read-out: LC50
SK-MEL-2 = assay: cells; settings: Homo sapiens, SK-MEL-2, 48 h; for CC50: read-out: LC50
SK-MEL-28 = assay: cells; settings: Homo sapiens, SK-MEL-28, 48 h; for CC50: read-out: LC50
SK-MEL-5 = assay: cells; settings: Homo sapiens, SK-MEL-5, 48 h; for CC50: read-out: LC50
IGROV1 = assay: cells; settings: Homo sapiens, IGROV-1, 48 h; for CC50: read-out: LC50
OVCAR-3 = assay: cells; settings: Homo sapiens, OVCAR-3, 48 h; for CC50: read-out: LC50
OVCAR-5 = assay: cells; settings: Homo sapiens, OVCAR-5, 48 h; for CC50: read-out: LC50
SK-OV-3 = assay: cells; settings: Homo sapiens, SK-OV-3, 48 h; for CC50: read-out: LC50
786-0 = assay: cells; settings: Homo sapiens, 786-0, 48 h; for CC50: read-out: LC50
A498 = assay: cells; settings: Homo sapiens, A498, 48 h; for CC50: read-out: LC50
ACHN = assay: cells; settings: Homo sapiens, 48 h; for CC50: read-out: LC50
CAKI-1 = assay: cells; settings: Homo sapiens, CAKI-1, 48 h; for CC50: read-out: LC50
RXF 393 = assay: cells; settings: Homo sapiens, RXF 393, 48 h; for CC50: read-out: LC50
UO-31 = assay: cells; settings: Homo sapiens, UO-31, 48 h; for CC50: read-out: LC50
PC-3 = assay: cells; settings: Homo sapiens, PC-3, 48 h; for CC50: read-out: LC50
MDA-MB-231/ATCC = assay: cells; settings: Homo sapiens, MDA-MB-231, 48 h; for CC50: read-out: LC50
T-47D = assay: cells; settings: Homo sapiens, T47D, 48 h; for CC50: read-out: LC50

In the case of `CN(C)c1nc(NCCNS(=O)(=O)c2ccc(C(=O)/C=C/c3ccccc3)cc2)nc(N2CCOCC2)n1` [23a], the hemolysis at 24 h, 200 µg/mL [1] is reported as 0.7%, the GI50 (CCRF-CEM) is reported as 4.41 µM and the CC50 (CCRF-CEM) is reported as greater than 100 µM. For the same compound, the GI50 (K-562) was 2.19 µM, the CC50 (K-562) was greater than 100 µM and the GI50 (MOLT-4) was 4.27 µM. For the same compound, the CC50 (MOLT-4) was greater than 100 µM, the GI50 (A549/ATCC) was 13.6 µM and the CC50 (A549/ATCC) was 59.1 µM. For the same compound, the GI50 (EKVX) was 14.7 µM, the CC50 (EKVX) was 63.8 µM and the GI50 (HOP-62) was 16.4 µM. For the same compound, the CC50 (HOP-62) was 62.7 µM, the GI50 (HOP-92) was 12.2 µM and the CC50 (HOP-92) was 58 µM. It also gave a GI50 (NCI-H23) of 16 µM, a CC50 (NCI-H23) of 58 µM and a GI50 (NCI-H460) of 18.2 µM. It also gave a CC50 (NCI-H460) of 80.7 µM, a GI50 (COLO 205) of 20.2 µM and a CC50 (COLO 205) of 80.7 µM. It also gave a GI50 (HCC-2998) of 16.7 µM, a CC50 (HCC-2998) of 57.7 µM and a GI50 (HCT-116) of 1.82 µM. It also gave a CC50 (HCT-116) of 7.1 µM, a GI50 (HCT-15) of 5.21 µM and a CC50 (HCT-15) of 61.7 µM. The GI50 (HT29) was 3.8 µM, the CC50 (HT29) was 43.9 µM and the GI50 (KM12) was 2 µM. It also gave a CC50 (KM12) of 8.93 µM, a GI50 (SW-620) of 3.41 µM and a CC50 (SW-620) of 42.7 µM. For the same compound, the GI50 (SF-268) was 13.7 µM, the CC50 (SF-268) was 70.1 µM and the GI50 (SF-295) was 15.6 µM. For the same compound, the CC50 (SF-295) was 59.5 µM, the GI50 (U251) was 11.7 µM and the CC50 (U251) was 57.2 µM. The GI50 (LOX IMVI) was 1.97 µM, the CC50 (LOX IMVI) was 8.68 µM and the GI50 (MALME-3M) was 15.2 µM. It also gave a CC50 (MALME-3M) of 56.5 µM, a GI50 (SK-MEL-2) of 15.3 µM and a CC50 (SK-MEL-2) of 56.9 µM. For the same compound, the GI50 (SK-MEL-28) was 17.2 µM, the CC50 (SK-MEL-28) was 63.9 µM and the GI50 (SK-MEL-5) was 15.9 µM. It also gave a CC50 (SK-MEL-5) of 54.3 µM, a GI50 (IGROV1) of 15.3 µM and a CC50 (IGROV1) of 66.4 µM. For the same compound, the GI50 (OVCAR-3) was 15.3 µM, the CC50 (OVCAR-3) was 53.4 µM and the GI50 (OVCAR-5) was 12.1 µM. It also gave a CC50 (OVCAR-5) of 55.9 µM, a GI50 (SK-OV-3) of 15.6 µM and a CC50 (SK-OV-3) of 56.8 µM. It also gave a GI50 (786-0) of 14.8 µM, a CC50 (786-0) of 57.1 µM and a GI50 (A498) of 14.6 µM. The CC50 (A498) was 52.9 µM, the GI50 (ACHN) was 18.2 µM and the CC50 (ACHN) was 72.2 µM. For the same compound, the GI50 (CAKI-1) was 12.2 µM, the CC50 (CAKI-1) was 49.9 µM and the GI50 (RXF 393) was 7.87 µM. The CC50 (RXF 393) was 55.8 µM, the GI50 (UO-31) was 11.2 µM and the CC50 (UO-31) was 55.7 µM. The GI50 (PC-3) was 8.63 µM, the CC50 (PC-3) was 58.9 µM and the GI50 (MDA-MB-231/ATCC) was 13.9 µM. It also gave a CC50 (MDA-MB-231/ATCC) of 54.7 µM, a GI50 (T-47D) of 16 µM and a CC50 (T-47D) of 87.4 µM.
Work on `COc1cc(/C=C/C(=O)c2ccc(S(=O)(=O)NCCNc3nc(N(C)C)nc(N4CCOCC4)n3)cc2)cc(OC)c1OC` [23d] yielded a hemolysis at 24 h, 200 µg/mL [1] of 0.2%, a GI50 (CCRF-CEM) of 2.07 µM and a CC50 (CCRF-CEM) greater than 100 µM. It also gave a GI50 (K-562) of 1.46 µM, a CC50 (K-562) greater than 100 µM and a GI50 (MOLT-4) of 2.23 µM. For the same compound, the CC50 (MOLT-4) was greater than 100 µM, the GI50 (A549/ATCC) was 3.55 µM and the CC50 (A549/ATCC) was 43.9 µM. For the same compound, the GI50 (EKVX) was 3.74 µM, the CC50 (EKVX) was 82.3 µM and the GI50 (HOP-62) was 2.66 µM. For the same compound, the CC50 (HOP-62) was 32.1 µM, the GI50 (HOP-92) was 7.27 µM and the CC50 (HOP-92) was 76 µM. For the same compound, the GI50 (NCI-H23) was 3.09 µM, the CC50 (NCI-H23) was 40.3 µM and the GI50 (NCI-H460) was 3.17 µM. The CC50 (NCI-H460) was 59 µM, the GI50 (COLO 205) was 2.14 µM and the CC50 (COLO 205) was 16.6 µM. For the same compound, the GI50 (HCC-2998) was 1.8 µM, the CC50 (HCC-2998) was 5.9 µM and the GI50 (HCT-116) was 1.56 µM. It also gave a CC50 (HCT-116) of 5.92 µM, a GI50 (HCT-15) of 1.82 µM and a CC50 (HCT-15) of 8.38 µM. For the same compound, the GI50 (HT29) was 1.72 µM, the CC50 (HT29) was 5.93 µM and the GI50 (KM12) was 1.7 µM. For the same compound, the CC50 (KM12) was 6.52 µM, the GI50 (SW-620) was 1.9 µM and the CC50 (SW-620) was 7.42 µM. The GI50 (SF-268) was 3.16 µM, the CC50 (SF-268) was 77.2 µM and the GI50 (SF-295) was 3.04 µM. It also gave a CC50 (SF-295) of 57.8 µM, a GI50 (U251) of 1.54 µM and a CC50 (U251) of 5.54 µM. The GI50 (LOX IMVI) was 1.64 µM, the CC50 (LOX IMVI) was 5.76 µM and the GI50 (MALME-3M) was 1.97 µM. It also gave a CC50 (MALME-3M) of 9.42 µM, a GI50 (SK-MEL-2) of 10.7 µM and a CC50 (SK-MEL-2) of 48.9 µM. For the same compound, the GI50 (SK-MEL-28) was 2.12 µM, the CC50 (SK-MEL-28) was 13 µM and the GI50 (SK-MEL-5) was 7.9 µM. The CC50 (SK-MEL-5) was 46.6 µM, the GI50 (IGROV1) was 2.6 µM and the CC50 (IGROV1) was 50.1 µM. It also gave a GI50 (OVCAR-3) of 2.02 µM, a CC50 (OVCAR-3) of 8.84 µM and a GI50 (OVCAR-5) of 2.83 µM. It also gave a CC50 (OVCAR-5) of 33.7 µM, a GI50 (SK-OV-3) of 14.3 µM and a CC50 (SK-OV-3) of 52.7 µM. The GI50 (786-0) was 1.89 µM, the CC50 (786-0) was 7.18 µM and the GI50 (A498) was 14.2 µM. For the same compound, the CC50 (A498) was 52.6 µM, the GI50 (ACHN) was 1.78 µM and the CC50 (ACHN) was 6.75 µM. For the same compound, the GI50 (CAKI-1) was 10.6 µM, the CC50 (CAKI-1) was 51 µM and the GI50 (RXF 393) was 1.22 µM. For the same compound, the CC50 (RXF 393) was 8.63 µM, the GI50 (UO-31) was 1.57 µM and the CC50 (UO-31) was 6.32 µM. For the same compound, the GI50 (PC-3) was 3.76 µM, the CC50 (PC-3) was greater than 100 µM and the GI50 (MDA-MB-231/ATCC) was 2.9 µM. For the same compound, the CC50 (MDA-MB-231/ATCC) was 36.7 µM, the GI50 (T-47D) was 5.74 µM and the CC50 (T-47D) was 71.5 µM.
